# Measurements as given in patent US9758537B2 (Achillion Pharmaceuticals, Inc., priority 2014, dated 2017).
# Target: Human factor D (Homo sapiens (Human), UniProt P00746)
# Assay: Human Factor D Assay
# Format: biochemical
# Details: human factor D 80 nM, substrate Z-L-Lys-SBzl, DTNB, OD405
# Experimental: Human factor D (purified from human serum, Complement Technology, Inc.) at 80 nM final concentration is incubated with test compound at various concentrations for 5 minutes at room temperature in 50 mM Tris, 1M NaCl, pH 7.5. A synthetic substrate Z-L-Lys-SBzl and DTNB (Ellman's reagent) are added to final concentrations of 10 μM each. The increase in color is recorded at OD405 nm in a microplate in kinetic mode over 30 minutes with 30 second time points in a […]. IC50 values are calculated by non-linear regression from the percentage of inhibition of complement factor D activity as a function of test compound concentration.
# Human factor D, sequence (P00746 26-253): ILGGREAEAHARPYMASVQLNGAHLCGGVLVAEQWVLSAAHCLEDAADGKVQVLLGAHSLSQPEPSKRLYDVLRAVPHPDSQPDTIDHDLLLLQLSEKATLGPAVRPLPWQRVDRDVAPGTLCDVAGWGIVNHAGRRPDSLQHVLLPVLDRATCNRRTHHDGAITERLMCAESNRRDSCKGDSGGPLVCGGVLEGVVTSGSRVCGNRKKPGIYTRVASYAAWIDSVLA
row,Structure (SMILES),IC50
1,"CC(C)(C)OC(=O)N[C@@H](Cc1c[nH]c2ccccc12)C(=O)N1C[C@H](F)C[C@H]1C(=O)NCc1cccc(Cl)c1F [Compound 38, tert-butyl (S)-1-((2S,4R)-2-(3-chloro-2-fluorobenzylcarbamoyl)-4-fluoropyrrolidin-1-yl)-3-(1H-indol-3-yl)-1-oxopropan-2-ylcarbamate]",> 10000 nM
2,"N[C@@H](Cc1c[nH]c2ccccc12)C(=O)N1C[C@H](F)C[C@H]1C(=O)NCc1cccc(Cl)c1F [Compound 39, (2S,4R)-1-((S)-2-amino-3-(1H-indol-3-yl)propanoyl)-N-(3-chloro-2-fluorobenzyl)-4-fluoropyrrolidine-2-carboxamide]",> 10000 nM
3,"O=C(NCc1cccc(Cl)c1F)[C@@H]1C[C@@H](F)CN1C(=O)Cn1cc([N+](=O)[O-])c2ccccc21 [Compound 46, (2S,4R)-N-(3-chloro-2-fluorobenzyl)-4-fluoro-1-(2-(3-nitro-1H-indol-1-yl)acetyl)pyrrolidine-2-carboxamide]",< 1000 nM
4,"CC(=O)Nc1cn(CC(=O)N2C[C@H](F)C[C@H]2C(=O)NCc2cccc(Cl)c2F)c2ccccc12 [Compound 47, (2S,4R)-1-(2-(3-acetamido-1H-indol-1-yl)acetyl)-N-(3-chloro-2-fluorobenzyl)-4-fluoropyrrolidine-2-carboxamide]",< 1000 nM
5,"CC(=O)c1cn(CC(=O)N2C[C@H](F)C[C@H]2C(=O)Nc2cccc(SC(F)(F)F)c2)c2cc(O)ccc12 [Compound 48, (2S,4R)-1-(2-(3-acetyl-6-hydroxy-1H-indol-1-yl)acetyl)-4-fluoro-N-(3-(trifluoromethylthio)phenyl)pyrrolidine-2-carboxamide]",< 1000 nM
6,"O=C(NCc1cccc(Cl)c1F)[C@@H]1C[C@@H](F)CN1C(=O)c1csc(-c2cccnc2)n1 [Compound 50, (2S,4R)-N-(3-chloro-2-fluorobenzyl)-4-fluoro-1-(2-(pyridin-3-yl)thiazole-4-carbonyl)pyrrolidine-2-carboxamide]",> 10000 nM
7,"CC(=O)Nc1ccc(C(=O)N2C[C@H](F)C[C@H]2C(=O)NCc2cccc(Cl)c2F)cn1 [Compound 51, (2S,4R)-1-(6-acetamidonicotinoyl)-N-(3-chloro-2-fluorobenzyl)-4-fluoropyrrolidine-2-carboxamide]",> 10000 nM
8,"O=C(NCc1cccc(Cl)c1F)[C@@H]1C[C@@H](F)CN1C(=O)Cn1nc(I)c2ccncc21 [Compound 52, (2S,4R)-N-(3-chloro-2-fluorobenzyl)-4-fluoro-1-(2-(3-iodo-1H-pyrazolo[3,4-c]pyridin-1-yl)acetyl)pyrrolidine-2-carboxamide]",< 1000 nM
9,"O=C(NCc1cccc(Cl)c1F)[C@@H]1C[C@@H](F)CN1C(=O)Nc1cn(C(=O)C2CC2)c2ccccc12 [Compound 54, (2S,4R)-N2-(3-chloro-2-fluorobenzyl)-N1-(1-(cyclopropanecarbonyl)-1H-indol-3-yl)-4-fluoropyrrolidine-1,2-dicarboxamide]",< 1000 nM
10,CC(=O)c1cn(C(C)C(=O)N2C[C@H](F)C[C@H]2C(=O)NCc2cccc(Cl)c2F)c2ccccc12 (stereo partly drawn) [Compound 55],> 10000 nM
11,CC(=O)c1cn(C(C)(C)C(=O)N2C[C@H](F)C[C@H]2C(=O)NCc2cccc(Cl)c2F)c2ccccc12 [Compound 56],> 10000 nM
12,CCOP(=O)(OCC)c1cc(Cl)c(F)c(CNC(=O)[C@@H]2C[C@@H](F)CN2C(=O)Cn2cc(C(C)=O)c3ccccc32)c1 [Compound 61],< 1000 nM
13,CC(=O)c1cn(CC(=O)N2[C@@H]3CCC[C@@H]3C[C@H]2C(=O)NCc2cccc(Cl)c2F)c2cc(O)ccc12 [Compound 62],< 1000 nM
14,"CC(=O)c1cn(CC(=O)N2C[C@H](F)C[C@H]2C(=O)NCc2cc(P(=O)(O)O)cc(Cl)c2F)c2ccccc12 [Compound 63, 3-(((2S,4R)-1-(2-(3-acetyl-1H-indol-1-yl)acetyl)-4-fluoropyrrolidine-2-carboxamido)methyl)-5-chloro-4-fluorophenylphosphonic acid]",< 1000 nM
15,"O=C(NCc1cccc(Cl)c1F)[C@@H]1C[C@@H](F)CN1C(=O)CN1C=NS(=O)(=O)c2ccccc21 [Compound 65, (2S,4R)-N-(3-chloro-2-fluorobenzyl)-1-(2-(1,1-dioxido-4H-benzo[e][1,2,4]thiadiazin-4-yl)acetyl)-4-fluoropyrrolidine-2-carboxamide]",> 10000 nM
16,"CC(C)(C)OC(=O)N1CCc2c(n(CC(=O)N3C[C@H](F)C[C@H]3C(=O)NCc3cccc(Cl)c3F)c3ccccc23)C1 [Compound 67, tert-butyl 9-(2-((2S,4R)-2-(3-chloro-2-fluorobenzylcarbamoyl)-4-fluoropyrrolidin-1-yl)-2-oxoethyl)-3,4-dihydro-1H-pyrido[3,4-b]indole-2(9H)-carboxylate]",> 10000 nM
17,"O=C(NCc1cccc(Cl)c1F)[C@@H]1C[C@@H](F)CN1C(=O)Cn1c2c(c3ccccc31)CCNC2 [Compound 68, (2S,4R)-N-(3-chloro-2-fluorobenzyl)-1-(2-(3,4-dihydro-1H-pyrido[3,4-b]indol-9(2H)-yl)acetyl)-4-fluoropyrrolidine-2-carboxamide]",> 10000 nM
18,"CCOC(=O)CC(=O)N1CCc2c(n(CC(=O)N3C[C@H](F)C[C@H]3C(=O)NCc3cccc(Cl)c3F)c3ccccc23)C1 [Compound 70, ethyl 3-(9-(2-((2S,4R)-2-(3-chloro-2-fluorobenzylcarbamoyl)-4-fluoropyrrolidin-1-yl)-2-oxoethyl)-3,4-dihydro-1H-pyrido[3,4-b]indol-2(9H)-yl)-3-oxopropanoate]",> 10000 nM
19,"CC(=O)n1cc(C(=O)C(=O)N2C[C@H](F)C[C@H]2C(=O)NCc2cccc(Cl)c2F)c2ccccc21 [Compound 71, (2S,4R)-1-(2-(1-acetyl-1H-indol-3-yl)-2-oxoacetyl)-N-(3-chloro-2-fluorobenzyl)-4-fluoropyrrolidine-2-carboxamide]",> 10000 nM
20,"O=C(O)CCC(=O)N1CCc2c(n(CC(=O)N3C[C@H](F)C[C@H]3C(=O)NCc3cccc(Cl)c3F)c3ccccc23)C1 [Compound 72, 4-(9-(2-((2S,4R)-2-(3-chloro-2-fluorobenzylcarbamoyl)-4-fluoropyrrolidin-1-yl)-2-oxoethyl)-3,4-dihydro-1H-pyrido[3,4-b]indol-2(9H)-yl)-4-oxobutanoic acid]",> 10000 nM
21,"O=C(NCc1cccc(Cl)c1F)[C@@H]1C[C@@H](F)CN1C(=O)Cn1nc(-c2cn[nH]c2)c2ccncc21 [Compound 73, (2S,4R)-1-(2-(3-(1H-pyrazol-4-yl)-1H-pyrazolo[3,4-c]pyridin-1-yl)acetyl)-N-(3-chloro-2-fluorobenzyl)-4-fluoropyrrolidine-2-carboxamide]",< 1000 nM
22,"C=C(F)c1nn(CC(=O)N2C[C@H](F)C[C@H]2C(=O)NCc2cccc(Cl)c2F)c2cnccc12 [Compound 74, (2S,4R)-N-(3-chloro-2-fluorobenzyl)-4-fluoro-1-(2-(3-(1-fluorovinyl)-1H-pyrazolo[3,4-c]pyridin-1-yl)acetyl)pyrrolidine-2-carboxamide]",< 1000 nM
23,"O=C(NCc1cccc(Cl)c1F)[C@@H]1C[C@@H](F)CN1C(=O)Cn1nc(-c2cnc[nH]2)c2ccncc21 [Compound 75, (2S,4R)-1-(2-(3-(1H-imidazol-5-yl)-1H-pyrazolo[3,4-c]pyridin-1-yl)acetyl)-N-(3-chloro-2-fluorobenzyl)-4-fluoropyrrolidine-2-carboxamide]",< 1000 nM
24,"NS(=O)(=O)c1cn(CC(=O)N2C[C@H](F)C[C@H]2C(=O)NCc2cccc(Cl)c2F)c2ccccc12 [Compound 76, (2S,4R)-N-(3-chloro-2-fluorobenzyl)-4-fluoro-1-(2-(3-sulfamoyl-1H-indol-1-yl)acetyl)pyrrolidine-2-carboxamide]",< 1000 nM
25,"NC(=O)c1nn(CC(=O)N2[C@@H]3C[C@@H]3C[C@H]2C(=O)Nc2cccc(-c3ccccc3Cl)c2F)cc1Br [Compound 77, (1R,3S,5R)-2-(2-(4-bromo-3-carbamoyl-1H-pyrazol-1-yl)acetyl)-N-(2′-chloro-2-fluorobiphenyl-3-yl)-2-azabicyclo[3.1.0]hexane-3-carboxamide]",< 1000 nM
26,"CC(=O)c1cn(CC(=O)N2C[C@H](F)C[C@H]2C(=O)Nc2cccc(-c3ccccc3Cl)c2F)c2c(C#N)cccc12 [Compound 79, (2S,4R)-1-(2-(3-acetyl-7-cyano-1H-indol-1-yl)acetyl)-N-(2′-chloro-2-fluorobiphenyl-3-yl)-4-fluoropyrrolidine-2-carboxamide]",< 1000 nM
27,"NC(=O)c1nn(CC(=O)N2C[C@H](F)C[C@H]2C(=O)Nc2cccc(-c3cc(F)c(F)cc3Cl)c2F)c2ccccc12 [Compound 80, 1-(2-((2S,4R)-2-(2′-chloro-2,4′,5′-trifluorobiphenyl-3-ylcarbamoyl)-4-fluoropyrrolidin-1-yl)-2-oxoethyl)-1H-indazole-3-carboxamide]",< 1000 nM
28,"CC(=O)c1cn(CC(=O)N2C[C@H](F)C[C@H]2C(=O)Nc2cccc(Br)n2)c2ccc(C3(N4C(=O)c5ccccc5C4=O)CC3)cc12 [Compound 81, (2S,4R)-1-(2-(3-acetyl-5-(1-(1,3-dioxoisoindolin-2-yl)cyclopropyl)-1H-indol-1-yl)acetyl)-N-(6-bromopyridin-2-yl)-4-fluoropyrrolidine-2-carboxamide]",< 1000 nM
29,"CC(=O)c1cn(CC(=O)N2C[C@H](F)C[C@H]2C(=O)Nc2cccc(-c3cc(F)c(F)cc3Cl)c2F)c2ccccc12 [Compound 82, (2S,4R)-1-(2-(3-acetyl-1H-indol-1-yl)acetyl)-N-(2′-chloro-2,4′,5′-trifluorobiphenyl-3-yl)-4-fluoropyrrolidine-2-carboxamide]",< 1000 nM
30,"NC(=O)c1nn(CC(=O)N2C[C@H](F)C[C@H]2C(=O)Nc2cccc(-c3cc(F)c(F)cc3Cl)c2F)c2cnccc12 [Compound 83, 1-(2-((2S,4R)-2-(2′-chloro-2,4′,5′-trifluorobiphenyl-3-ylcarbamoyl)-4-fluoropyrrolidin-1-yl)-2-oxoethyl)-1H-pyrazolo[3,4-c]pyridine-3-carboxamide]",< 1000 nM
